Laboratory results from US12077503B2, “Substituted cyclic amides and their use as herbicides” (FMC CORPORATION, priority 2015, dated 2024).

What was measured:
Type in all cases: in vivo
[1] = test system: ducksalad (Heteranthera limosa); test: Test B flooded paddy test; settings: Flood, 250 g ai/ha; 0 to 100 scale where 0 is no effect and 100 is complete control; 13 to 15 d
Procedure, shortened: (§1)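 Rating scale 0–100 (visual, vs untreated controls) after a 13–15 d greenhouse period; application to the flood layer, 3 cm above soil and maintained; plants at 2-leaf stage when treated.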

[2] = test system: barnyardgrass (Echinochloa crus-galli); test: Test B flooded paddy test; settings: Flood, 250 g ai/ha; 0 to 100 scale where 0 is no effect and 100 is complete control; 13 to 15 d
Procedure, shortened: as §1

[3] = test system: sedge, umbrella (small-flower umbrella sedge, Cyperus difformis); test: Test B flooded paddy test; settings: Flood, 250 g ai/ha; 0 to 100 scale where 0 is no effect and 100 is complete control; 13 to 15 d
Procedure, shortened: as §1

rice (Oryra sativa) = test: Test B flooded paddy test; settings: Flood, 250 g ai/ha; 0 to 100 scale where 0 is no effect and 100 is complete control; 13 to 15 d
Procedure, shortened: as §1

[4] = test system: ragweed (common ragweed, Ambrosia elatior); test: Test A preemergence; settings: for Plant response rating, Ragweed: 125 g ai/ha; for Ragweed plant response rating (0 to 100 scale, 0 is no effect, 100 is complete control): 500 g ai/ha, visual injury approx. 10 d
Procedure, shortened: (§2)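 Visual injury scores from 0, no effect, to 100, complete control, were assigned versus untreated controls roughly 10 d after treatment in the greenhouse. Test chemicals, formulated with surfactant in a non-phytotoxic solvent, were applied to planted seeds as a preemergence soil spray or postemergence to one- to two-leaf plants 2 to 10 cm tall, in loam–sand soil.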

[5] = test system: ryegrass, Italian (Italian ryegrass, Lolium multiflorum); test: Test A preemergence; settings: for Plant response rating, Ryegrass, Italian: 125 g ai/ha; for Ryegrass, Italian plant response rating (0 to 100 scale, 0 is no effect, 100 is complete control): 500 g ai/ha, visual injury approx. 10 d
Procedure, shortened: as §2

[6] = test system: pigweed (Amaranthus retroflexus); test: Test A preemergence; settings: for Pigweed plant response rating (0 to 100 scale, 0 is no effect, 100 is complete control): Preemergence, 500 g ai/ha, visual injury approx. 10 d; for Plant response rating, Pigweed: 125 g ai/ha, preemergence, 0 to 100 scale (0 no effect, 100 complete control)
[7] = test system: giant foxtail (Setaria faberii); test: Test A preemergence; settings: for Plant response rating, Foxtail, Giant: 125 g ai/ha; for Foxtail, Giant plant response rating (0 to 100 scale, 0 is no effect, 100 is complete control): 500 g ai/ha, visual injury approx. 10 d
Procedure, shortened: as §2

[8] = test system: barnyardgrass (Echinochloa crus-galli); test: Test A preemergence; settings: for Plant response rating, Barnyardgrass: 125 g ai/ha; for Barnyardgrass plant response rating (0 to 100 scale, 0 is no effect, 100 is complete control): 500 g ai/ha, visual injury approx. 10 d
Procedure, shortened: as §2

Kochia (Kochia scoparia) [9] = test: Test A preemergence; settings: for Plant response rating, Kochia: 125 g ai/ha; for Kochia plant response rating (0 to 100 scale, 0 is no effect, 100 is complete control): 500 g ai/ha, visual injury approx. 10 d
Procedure, shortened: as §2

[10] = test system: ragweed (common ragweed, Ambrosia elatior); test: Test A postemergence; settings: for Ragweed plant response rating: visual injury rating on 0 to 100 scale (0 no effect, 100 complete control), approx. 10 d
Procedure, shortened: as §2

[11] = test system: Galium (catchweed bedstraw, Galium aparine); test: Test A postemergence; settings: for Galium plant response rating: visual injury rating on 0 to 100 scale (0 no effect, 100 complete control), approx. 10 d
Procedure, shortened: as §2

[12] = test system: wheat (Triticum aestivum); test: Test A postemergence; settings: for Wheat plant response rating: visual injury rating on 0 to 100 scale (0 no effect, 100 complete control), approx. 10 d
Procedure, shortened: as §2

[13] = test system: ryegrass, Italian (Italian ryegrass, Lolium multiflorum); test: Test A postemergence; settings: for Ryegrass, Italian plant response rating: visual injury rating on 0 to 100 scale (0 no effect, 100 complete control), approx. 10 d
Procedure, shortened: as §2

[14] = test system: pigweed (Amaranthus retroflexus); test: Test A postemergence; settings: for Pigweed plant response rating: visual injury rating on 0 to 100 scale (0 no effect, 100 complete control), approx. 10 d
Procedure, shortened: as §2

[15] = test system: blackgrass (Alopecurus myosuroides); test: Test A postemergence; settings: for Blackgrass plant response rating: visual injury rating on 0 to 100 scale (0 no effect, 100 complete control), approx. 10 d
Procedure, shortened: as §2

[16] = test system: giant foxtail (Setaria faberii); test: Test A postemergence; settings: for Foxtail, Giant plant response rating: visual injury rating on 0 to 100 scale (0 no effect, 100 complete control), approx. 10 d
Procedure, shortened: as §2

[17] = test system: barnyardgrass (Echinochloa crus-galli); test: Test A postemergence; settings: for Barnyardgrass plant response rating: visual injury rating on 0 to 100 scale (0 no effect, 100 complete control), approx. 10 d
Procedure, shortened: as §2

corn (Zea mays) = test: Test A postemergence; settings: for Corn plant response rating: visual injury rating on 0 to 100 scale (0 no effect, 100 complete control), approx. 10 d
Procedure, shortened: as §2

Kochia (Kochia scoparia) [18] = test: Test A postemergence; settings: for Kochia plant response rating: visual injury rating on 0 to 100 scale (0 no effect, 100 complete control), approx. 10 d
Procedure, shortened: as §2

[19] = Preemergence, visual injury after approximately 10 d, 0 to 100 scale where 0 is no effect and 100 is complete control
[20] = 125 g ai/ha, postemergence, visual rating after approx. 10 d, 0 to 100 scale (0 no effect, 100 complete control)
[21] = Postemergence, 500 g ai/ha, 0 to 100 scale where 0 is no effect and 100 is complete control
[22] = preemergence, 0 to 100 scale (0 no effect, 100 complete control)
[23] = 500 g ai/ha, postemergence, 0 to 100 scale, 0 no effect, 100 complete control

O=C1NCC(c2cc(C(F)(F)F)ccc2F)C1C(=O)Nc1ccccc1F (centres unmarked) [Compound 593]
90: Plant response rating, Foxtail, Giant [7, 19] | Foxtail, Giant plant response rating (0 to 100 scale, 0 is no effect, 100 is complete control) ([7]; Preemergence) | Plant response rating, Barnyardgrass [8, 19] | Barnyardgrass plant response rating (0 to 100 scale, 0 is no effect, 100 is complete control) ([8]; Preemergence) | Plant response rating, Foxtail, Giant [16, 20] | Plant response rating, Foxtail, Giant [16, 21] | Plant response rating, Barnyardgrass [17, 20] | Plant response rating, Barnyardgrass [17, 21]
0: Plant response rating, Sedge, Umbrella [3] | Plant response rating, Ragweed [4, 19] | Ragweed plant response rating (0 to 100 scale, 0 is no effect, 100 is complete control) ([4]; Preemergence) | Plant response rating, Ryegrass, Italian [5, 19] | Pigweed plant response rating (0 to 100 scale, 0 is no effect, 100 is complete control) [6] | Plant response rating, Kochia (Kochia (Kochia scoparia) [9]; [19]) | Kochia plant response rating (0 to 100 scale, 0 is no effect, 100 is complete control) (Kochia (Kochia scoparia) [9]; Preemergence) | Plant response rating, Ragweed [10, 20] | Plant response rating, Ragweed [10, 21] | Plant response rating, Galium [11, 20] | Plant response rating, Wheat [12, 20] | Plant response rating, Ryegrass, Italian [13, 20] | Plant response rating, Pigweed [14, 20] | Plant response rating, Pigweed [14, 21] | Plant response rating, Kochia (Kochia (Kochia scoparia) [18]; [20]) | Plant response rating, Kochia (Kochia (Kochia scoparia) [18]; [21])
20: Plant response rating, Galium [11, 21]
60: Plant response rating, Barnyardgrass [2] | Plant response rating, Blackgrass [15, 21]
40: Plant response rating, Wheat [12, 21]
15: Plant response rating, Rice (rice (Oryra sativa))
30: Plant response rating, Ryegrass, Italian [13, 21] | Plant response rating, Corn (corn (Zea mays); [20])
50: Ryegrass, Italian plant response rating (0 to 100 scale, 0 is no effect, 100 is complete control) ([5]; Preemergence) | Plant response rating, Blackgrass [15, 20]
80: Plant response rating, Ducksalad [1]
70: Plant response rating, Corn (corn (Zea mays); [21])

CN1CC(c2ccc(F)cc2)C(C(=O)Nc2ccccc2S(C)(=O)=O)C1=O (centres unmarked) [Compound 439]
60: Ragweed plant response rating (0 to 100 scale, 0 is no effect, 100 is complete control) ([4]; Preemergence) | Plant response rating, Blackgrass [15, 23]
90: Plant response rating, Foxtail, Giant [7, 22] | Plant response rating, Barnyardgrass [8, 22] | Barnyardgrass plant response rating (0 to 100 scale, 0 is no effect, 100 is complete control) ([8]; Preemergence) | Foxtail, Giant plant response rating ([16]; 125 g ai/ha, postemergence) | Plant response rating, Foxtail, Giant [16, 23] | Barnyardgrass plant response rating ([17]; 125 g ai/ha, postemergence) | Plant response rating, Barnyardgrass [17, 23]
40: Plant response rating, Barnyardgrass [2] | Galium plant response rating ([11]; 125 g ai/ha, postemergence) | Plant response rating, Wheat [12, 23] | Pigweed plant response rating ([14]; 125 g ai/ha, postemergence)
50: Ryegrass, Italian plant response rating (0 to 100 scale, 0 is no effect, 100 is complete control) ([5]; Preemergence) | Plant response rating, Pigweed [6] | Plant response rating, Galium [11, 23] | Plant response rating, Pigweed [14, 23]
20: Plant response rating, Ragweed [10, 23] | Plant response rating, Corn (corn (Zea mays); [23])
100: Plant response rating, Ducksalad [1] | Foxtail, Giant plant response rating (0 to 100 scale, 0 is no effect, 100 is complete control) ([7]; Preemergence)
70: Plant response rating, Kochia (Kochia (Kochia scoparia) [9]; [22]) | Kochia plant response rating (0 to 100 scale, 0 is no effect, 100 is complete control) (Kochia (Kochia scoparia) [9]; Preemergence) | Plant response rating, Kochia (Kochia (Kochia scoparia) [18]; [23])
0: Plant response rating, Sedge, Umbrella [3] | Plant response rating, Rice (rice (Oryra sativa)) | Plant response rating, Ragweed [4, 22] | Plant response rating, Ryegrass, Italian [5, 22] | Ragweed plant response rating ([10]; 125 g ai/ha, postemergence) | Wheat plant response rating ([12]; 125 g ai/ha, postemergence) | Ryegrass, Italian plant response rating ([13]; 125 g ai/ha, postemergence) | Blackgrass plant response rating ([15]; 125 g ai/ha, postemergence) | Corn plant response rating (corn (Zea mays); 125 g ai/ha, postemergence)
80: Pigweed plant response rating (0 to 100 scale, 0 is no effect, 100 is complete control) [6]
30: Plant response rating, Ryegrass, Italian [13, 23] | Kochia plant response rating (Kochia (Kochia scoparia) [18]; 125 g ai/ha, postemergence)

O=C1NCC(c2cccc(C#Cc3ccccc3)c2)C1C(=O)Nc1cccc(F)c1F (centres unmarked) [Compound 451]
0: Plant response rating, Ducksalad [1] | Plant response rating, Barnyardgrass [2] | Plant response rating, Sedge, Umbrella [3] | Plant response rating, Rice (rice (Oryra sativa)) | Plant response rating, Ragweed [4, 22] | Ragweed plant response rating (0 to 100 scale, 0 is no effect, 100 is complete control) ([4]; Preemergence) | Plant response rating, Ryegrass, Italian [5, 22] | Ryegrass, Italian plant response rating (0 to 100 scale, 0 is no effect, 100 is complete control) ([5]; Preemergence) | Plant response rating, Pigweed [6] | Pigweed plant response rating (0 to 100 scale, 0 is no effect, 100 is complete control) [6] | Plant response rating, Foxtail, Giant [7, 22] | Foxtail, Giant plant response rating (0 to 100 scale, 0 is no effect, 100 is complete control) ([7]; Preemergence) | Plant response rating, Barnyardgrass [8, 22] | Barnyardgrass plant response rating (0 to 100 scale, 0 is no effect, 100 is complete control) ([8]; Preemergence) | Plant response rating, Kochia (Kochia (Kochia scoparia) [9]; [22]) | Kochia plant response rating (0 to 100 scale, 0 is no effect, 100 is complete control) (Kochia (Kochia scoparia) [9]; Preemergence) | Ragweed plant response rating ([10]; 125 g ai/ha, postemergence) | Plant response rating, Ragweed [10, 23] | Galium plant response rating ([11]; 125 g ai/ha, postemergence) | Plant response rating, Galium [11, 23] | Wheat plant response rating ([12]; 125 g ai/ha, postemergence) | Plant response rating, Wheat [12, 23] | Ryegrass, Italian plant response rating ([13]; 125 g ai/ha, postemergence) | Plant response rating, Ryegrass, Italian [13, 23] | Pigweed plant response rating ([14]; 125 g ai/ha, postemergence) | Plant response rating, Pigweed [14, 23] | Blackgrass plant response rating ([15]; 125 g ai/ha, postemergence) | Plant response rating, Blackgrass [15, 23] | Foxtail, Giant plant response rating ([16]; 125 g ai/ha, postemergence) | Plant response rating, Foxtail, Giant [16, 23] | Barnyardgrass plant response rating ([17]; 125 g ai/ha, postemergence) | Plant response rating, Barnyardgrass [17, 23] | Corn plant response rating (corn (Zea mays); 125 g ai/ha, postemergence) | Plant response rating, Corn (corn (Zea mays); [23]) | Kochia plant response rating (Kochia (Kochia scoparia) [18]; 125 g ai/ha, postemergence) | Plant response rating, Kochia (Kochia (Kochia scoparia) [18]; [23])
